From patent publication US9861680B2, “Immunomodulators” (BRISTOL-MYERS SQUIBB COMPANY, priority 2014, dated 2018)
Numbered stars: 1 amine (or outer) side, 2 acyl side, 3 side chain; on linkers, the order of the positions; unused ones are H or OH. Bridge positions count the residues as written; N and C are the ends. Square brackets hold non-standard residues; d marks the D form. Peptide text beside a SMILES is read from it. X6 = O=C(O)CC[C@H](CC(=O)[C@H](Cc1cnc[nH]1)N[*:1])C(=O)[*:2]; X5 = CCCC[C@@H](C(=O)[*:2])N(CC)[*:1]; Gly(N-2-aminoethyl) = NCCNCC(=O)O; NBnAla = C[C@H](NCc1ccccc1)C(=O)O; Hyp = O=C(O)[C@@H]1C[C@@H](O)CN1; NMeNle = CCCC[C@H](NC)C(=O)O; NEtAla = CCN[C@@H](C)C(=O)O; NMeA = CN[C@@H](C)C(=O)O; Dab = NCC[C@H](N)C(=O)O; Nme = COCCNCC(=O)O; NEtG = CCNCC(=O)O

These molecules were tested against T1, PD-1-Ig binding to PD-L1-TVMV-His (PD-L1-His) (Homo sapiens, UniProt Q9NZQ7) (assay: PD-1/PD-L1 Homogenous Time-Resolved Fluorescence (HTRF) binding assay). Settings: numeric value; PD-L1-His 10 nM, PD-1-Ig 20 nM.
T1 construct: hPDL1(19-239)-TVMV-His; made in house; host or cells: HEK293T
T1 sequence (Q9NZQ7 with tags, fused parts or gaps): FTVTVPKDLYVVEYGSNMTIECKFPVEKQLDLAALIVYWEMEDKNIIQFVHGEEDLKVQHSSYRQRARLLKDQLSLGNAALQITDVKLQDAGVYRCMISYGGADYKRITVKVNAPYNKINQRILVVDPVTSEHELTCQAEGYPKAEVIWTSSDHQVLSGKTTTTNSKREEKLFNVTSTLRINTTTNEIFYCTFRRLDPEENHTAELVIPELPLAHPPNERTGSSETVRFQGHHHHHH
Text: Methods for Testing the Ability of Macrocyclic Peptides to Compete for the Binding of Pd-1 to Pd-L1 Using Homogenous Time-Resolved Fluorescence (HTRF) Binding Assays
The ability of the macrocyclic peptides of the present disclosure to bind to PD-L1 was investigated using a PD-1/PD-L1 Homogenous Time-Resolved Fluorescence (HTRF) binding assay.
Homogenous Time-Resolved Fluorescence (HTRF) Assays of Binding of Soluble PD-1 to Soluble PD-L1. Soluble PD-1 and soluble PD-L1 refers to proteins with carboxyl-end truncations that remove the transmembrane-spanning regions and are fused to heterologous sequences, specifically the Fc portion of the human immunoglobuling G sequence (Ig) or the hexahistidine epitope tag (His). All binding studies were performed in an HTRF assay buffer consisting of dPBS supplemented with 0.1% (w/v) bovine serum albumin and 0.05% (v/v) Tween-20. For the PD-1-Ig/PD-L1-His binding assay, inhibitors were pre-incubated with PD-L1-His (10 nM final) for 15 m in 4 μl of assay buffer, followed by addition of PD-1-Ig (20 nM final) in 1 μl of assay buffer and further incubation for 15 m. PD-L1 fusion proteins from either human, cynomologous macaques, mouse, or other species were used. HTRF detection was achieved using europium crypate-labeled anti-Ig monoclonal antibody (1 nM final) and allophycocyanin (APC) labeled anti-His monoclonal antibody (20 nM final). Antibodies were diluted in HTRF detection buffer and 5 μl was dispensed on top of binding reaction. The reaction was allowed to equilibrate for 30 minutes and signal (665 nm/620 nm ratio) was obtained using an EnVision fluorometer. Additional binding assays were established between PD-1-Ig/PD-L2-His (20 and 5 nM, respectively), CD80-His/PD-L1-Ig (100 and 10 nM, respectively) and CD80-His/CTLA4-Ig (10 and 5 nM, respectively). Binding/competition studies between biotinylated Compound No. 71 and human PD-L1-His were performed as follows. Macrocyclic peptide inhibitors were pre-incubated with PD-L1-His (10 nM final) for 60 minutes in 4 μl of assay buffer followed by addition of biotinylated Compound No. 71 (0.5 nM final) in 1 μl of assay buffer. Binding was allowed to equilibrate for 30 minutes followed by addition of europium crypated labeled Streptavidin (2.5 pM final) and APC-labeled anti-His (20 nM final) in 5 μl of HTRF buffer. The reaction was allowed to equilibrate for 30 m and signal (665 nm/620 nm ratio) was obtained using an EnVision fluorometer.
Recombinant Proteins. Carboxyl-truncated human PD-1 (amino acids 25-167) with a C-terminal human Ig epitope tag [hPD-1 (25-167)-3S-IG] and human PD-L1 (amino acids 18-239) with a C-terminal His epitope tag [hPD-L1(19-239)-tobacco vein mottling virus protease cleavage site (TVMV)-His] were expressed in HEK293T cells and purified sequentially by recombinant Protein A affinity chromatography and size exclusion chromatography. Human PD-L2-His (Sino Biologicals), CD80-His (Sino Biologicals), CTLA4-Ig (RnD Systems) were all obtained through commercial sources.
Ranges are as follows: A=0.10-10 μM; B=0.01-0.099 μM; C=0.005-0.0099 μM.
Work on `CCCC[C@H]1C(=O)N(C)[C@@H](CCCC)C(=O)N[C@@H](CC(C)C)C(=O)N[C@H](C(=O)NCC(N)=O)CSCC(=O)N[C@@H](Cc2ccc(O)cc2)C(=O)N(C)[C@@H](C)C(=O)N[C@@H](CC(N)=O)C(=O)N2CCC[C@H]2C(=O)N[C@@H](Cc2cnc[nH]2)C(=O)N[C@@H](CCC(=O)O)C(=O)N(CC(=O)O)CC(=O)N[C@@H](Cc2c[nH]c3ccccc23)C(=O)N[C@@H](CCN)C(=O)N[C@@H](Cc2c[nH]c3ccccc23)C(=O)N1C` [Example 3005] yielded an IC50 of 30 nM. For `CCCC[C@H]1C(=O)N(C)[C@@H](CCCC)C(=O)N[C@@H](CC(C)C)C(=O)N[C@H](C(=O)NCC(N)=O)CSCC(=O)N[C@@H](Cc2ccc(O)cc2)C(=O)N(C)[C@@H](C)C(=O)N[C@@H](CC(N)=O)C(=O)N2CCC[C@H]2C(=O)N[C@@H](Cc2cnc[nH]2)C(=O)N[C@@H](CCC(=O)O)C(=O)N(CCN)CC(=O)N[C@@H](Cc2c[nH]c3ccccc23)C(=O)N[C@@H](CCN)C(=O)N[C@@H](Cc2c[nH]c3ccccc23)C(=O)N1C` [Example 3011] ({CH2CO}-Y[NMeA]NPHE[Gly(N-2-aminoethyl)]W[Dab]W[NMeNle][NMeNle]LCG-NH2; thioether N-14), the IC50 was 6.12 nM.

Same assay, conditions: range class; PD-L1-His 10 nM, PD-1-Ig 20 nM
`CCCC[C@H]1C(=O)N(C)[C@@H](CCCC)C(=O)N[C@@H](CC(C)C)C(=O)N[C@H](C(=O)NCC(N)=O)CSCC(=O)N[C@@H](Cc2ccc(O)cc2)C(=O)N(C)[C@@H](C)C(=O)N[C@@H](CC(N)=O)C(=O)N2CCC[C@H]2C(=O)N[C@@H](Cc2cnc[nH]2)C(=O)N[C@@H](CCC(=O)O)C(=O)N(CCOC)CC(=O)N[C@@H](Cc2c[nH]c3ccccc23)C(=O)N[C@@H](CCN)C(=O)N[C@@H](Cc2c[nH]c3ccccc23)C(=O)N1C` [Example 3006] ({CH2CO}-Y[NMeA]NPHE[Nme]W[Dab]W[NMeNle][NMeNle]LCG-NH2; thioether N-14) showed an IC50 of 10 to 99 nM. In the case of `CCCC[C@H]1C(=O)N[C@@H](CC(C)C)C(=O)N[C@H](C(=O)NCC(N)=O)CSCC(=O)N[C@@H](Cc2ccc(O)cc2)C(=O)N(C)[C@@H](C)C(=O)N[C@@H](CC(N)=O)C(=O)N2CCC[C@H]2C(=O)N[C@@H](Cc2cnc[nH]2)C(=O)N[C@@H](CCC(=O)O)C(=O)N2C[C@H](O)C[C@H]2C(=O)N[C@@H](Cc2c[nH]c3ccccc23)C(=O)N[C@@H](CCN)C(=O)N[C@@H](Cc2c[nH]c3ccccc23)C(=O)N(CC)[C@@H](CCCC)C(=O)N1C` [Example 3023] ({CH2CO}-Y[NMeA]NPHE[Hyp]W[Dab]W[X5][NMeNle]LCG-NH2; thioether N-14), the IC50 is reported as 10 to 99 nM. For `CCCC[C@H]1C(=O)N(CC)[C@@H](CCCC)C(=O)N[C@@H](CC(C)C)C(=O)N[C@H](C(=O)NCC(N)=O)CSCC(=O)N[C@@H](Cc2ccc(O)cc2)C(=O)N(C)[C@@H](C)C(=O)N[C@@H](CC(N)=O)C(=O)N2CCC[C@H]2C(=O)N[C@@H](Cc2cnc[nH]2)C(=O)N[C@@H](CCC(=O)O)C(=O)N2C[C@H](O)C[C@H]2C(=O)N[C@@H](Cc2c[nH]c3ccccc23)C(=O)N[C@@H](CCN)C(=O)N[C@@H](Cc2c[nH]c3ccccc23)C(=O)N1C` [Example 3021] ({CH2CO}-Y[NMeA]NPHE[Hyp]W[Dab]W[NMeNle][X5]LCG-NH2; thioether N-14), the IC50 was 5 to 9.9 nM. `CCCC[C@H]1C(=O)N(C)[C@@H](CCCC)C(=O)N[C@@H](CC(C)C)C(=O)N[C@H](C(=O)NCC(N)=O)CSCC(=O)N[C@@H](Cc2ccc(O)cc2)C(=O)N(CC(=O)O)CC(=O)N[C@@H](CC(N)=O)C(=O)N2CCC[C@H]2C(=O)N[C@@H](Cc2cnc[nH]2)C(=O)N[C@@H](CCC(=O)O)C(=O)N2C[C@H](O)C[C@H]2C(=O)N[C@@H](Cc2c[nH]c3ccccc23)C(=O)N[C@@H](CCN)C(=O)N[C@@H](Cc2c[nH]c3ccccc23)C(=O)N1C` [Example 3044] gave an IC50 of 10 to 99 nM. With `CCCC[C@H]1C(=O)N[C@@H](CC(C)C)C(=O)N[C@H](C(=O)NCC(N)=O)CSCC(=O)N[C@@H](Cc2ccc(O)cc2)C(=O)N(C)[C@@H](C)C(=O)N[C@@H](CC(N)=O)C(=O)N2CCC[C@H]2C(=O)N[C@@H](Cc2cnc[nH]2)C(=O)N[C@@H](CCC(=O)O)C(=O)N2C[C@H](O)C[C@H]2C(=O)N[C@@H](Cc2c[nH]c3ccccc23)C(=O)N[C@@H](CCN)C(=O)N[C@@H](Cc2c[nH]c3ccccc23)C(=O)N(CC(=O)O)CC(=O)N1C` [Example 3037] the IC50 was 100 to 10000 nM. With `CCCC[C@H]1C(=O)N[C@@H](CC(C)C)C(=O)N[C@H](C(=O)NCC(N)=O)CSCC(=O)N[C@@H](Cc2ccc(O)cc2)C(=O)N(C)[C@@H](C)C(=O)N[C@@H](CC(N)=O)C(=O)N2CCC[C@H]2C(=O)N[C@@H](Cc2cnc[nH]2)C(=O)N[C@@H](CCC(=O)O)C(=O)N2C[C@H](O)C[C@H]2C(=O)N[C@@H](Cc2c[nH]c3ccccc23)C(=O)N[C@@H](CCN)C(=O)N[C@@H](Cc2c[nH]c3ccccc23)C(=O)N(Cc2ccccc2)[C@@H](C)C(=O)N1C` [Example 3029] ({CH2CO}-Y[NMeA]NPHE[Hyp]W[Dab]W[NBnAla][NMeNle]LCG-NH2; thioether N-14) the IC50 was 100 to 10000 nM. Work on `CCCC[C@H]1C(=O)N[C@@H](CC(C)C)C(=O)N[C@H](C(=O)NCC(N)=O)CSCC(=O)N[C@@H](Cc2ccc(O)cc2)C(=O)N(C)[C@@H](C)C(=O)N[C@@H](CC(N)=O)C(=O)N2CCC[C@H]2C(=O)N[C@@H](Cc2cnc[nH]2)C(=O)N[C@@H](CCC(=O)O)C(=O)N2C[C@H](O)C[C@H]2C(=O)N[C@@H](Cc2c[nH]c3ccccc23)C(=O)N[C@@H](CCN)C(=O)N[C@@H](Cc2c[nH]c3ccccc23)C(=O)N(CC)[C@@H](C)C(=O)N1C` [Example 3024] ({CH2CO}-Y[NMeA]NPHE[Hyp]W[Dab]W[NEtAla][NMeNle]LCG-NH2; thioether N-14) yielded an IC50 of 10 to 99 nM. Work on `CCCC[C@H]1C(=O)N(C)[C@@H](CCCC)C(=O)N[C@@H](CC(C)C)C(=O)N[C@H](C(=O)NCC(N)=O)CSCC(=O)N[C@@H](Cc2ccc(O)cc2)C(=O)N(C)[C@@H](C)C(=O)N[C@@H](CC(N)=O)C(=O)N2CCC[C@H]2C(=O)N[C@@H](Cc2c[nH]cn2)C(=O)N[C@@H](CCC(=O)O)C(=O)N(CC(=O)O)CC(=O)N[C@@H](Cc2c[nH]c3ccccc23)C(=O)N[C@@H](CCN)C(=O)N[C@@H](Cc2csc3ccccc23)C(=O)N1C` [Example 5001] yielded an IC50 of 5 to 9.9 nM. `CCCC[C@H]1C(=O)N(C)[C@@H](CCCC)C(=O)N[C@@H](CC(C)C)C(=O)N[C@H](C(=O)NCC(N)=O)CSCC(=O)N[C@@H](Cc2ccc(O)cc2)C(=O)N(C)[C@@H](C)C(=O)N[C@@H](CC(N)=O)C(=O)N2CCC[C@H]2C(=O)N[C@@H](Cc2cnc[nH]2)C(=O)N[C@@H](CCC(=O)O)C(=O)N(CC)CC(=O)N[C@@H](Cc2c[nH]c3ccccc23)C(=O)N[C@@H](CCN)C(=O)N[C@@H](Cc2c[nH]c3ccccc23)C(=O)N1C` [Example 3003] ({CH2CO}-Y[NMeA]NPHE[NEtG]W[Dab]W[NMeNle][NMeNle]LCG-NH2; thioether N-14) was tested, and the IC50 was 10 to 99 nM. For `CCCC[C@H]1C(=O)N(C)[C@@H](CCCC)C(=O)N[C@@H](CC(C)C)C(=O)N[C@H](C(=O)NCC(N)=O)CSCC(=O)N[C@@H](Cc2ccc(O)cc2)C(=O)N(CC)[C@@H](C)C(=O)N[C@@H](CC(N)=O)C(=O)N2CCC[C@H]2C(=O)N[C@@H](Cc2cnc[nH]2)C(=O)C[C@@H](CCC(=O)O)C(=O)N2C[C@H](O)C[C@H]2C(=O)N[C@@H](Cc2c[nH]c3ccccc23)C(=O)N[C@@H](CCN)C(=O)N[C@@H](Cc2c[nH]c3ccccc23)C(=O)N1C` [Example 3017] ({CH2CO}-Y[NEtAla]NP[X6][Hyp]W[Dab]W[NMeNle][NMeNle]LCG-NH2; thioether N-13), the IC50 was 5 to 9.9 nM. For `CCCC[C@H]1C(=O)N(C)[C@@H](CCCC)C(=O)N[C@@H](CC(C)C)C(=O)N[C@H](C(=O)NCC(N)=O)CSCC(=O)N[C@@H](Cc2ccc(O)cc2)C(=O)N(Cc2ccccc2)[C@@H](C)C(=O)N[C@@H](CC(N)=O)C(=O)N2CCC[C@H]2C(=O)N[C@@H](Cc2cnc[nH]2)C(=O)N[C@@H](CCC(=O)O)C(=O)N2C[C@H](O)C[C@H]2C(=O)N[C@@H](Cc2c[nH]c3ccccc23)C(=O)N[C@@H](CCN)C(=O)N[C@@H](Cc2c[nH]c3ccccc23)C(=O)N1C` [Example 3019] ({CH2CO}-Y[NBnAla]NPHE[Hyp]W[Dab]W[NMeNle][NMeNle]LCG-NH2; thioether N-14), the IC50 was 10 to 99 nM.
